Experiments:
Experiment in all cases: relative viability (nuclei count vs DMSO), 5 days (fraction); higher = more cells survive
Tivantinib + Dasatinib = compound: O=C1NC(=O)[C@@H](c2cn3c4c(cccc24)CCC3)[C@@H]1c1c[nH]c2ccccc12 [Tivantinib] + Cc1nc(Nc2ncc(C(=O)Nc3c(C)cccc3Cl)s2)cc(N2CCN(CCO)CC2)n1 [Dasatinib] (partner 0.075 µM)
Summary of the method: (§1)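 Relative viability is defined as nuclei in treated wells over nuclei in vehicle wells. Duplicate plates were run and medians reported. Lung cancer cell lines in 1536-well plates were dosed by pin tool one day after seeding, with one drug or with a fixed anchor-drug dose plus five library-drug doses (not always all listed) in √10 steps, and nuclei were counted after 5 days.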

Tivantinib + Luminespib = compound: O=C1NC(=O)[C@@H](c2cn3c4c(cccc24)CCC3)[C@@H]1c1c[nH]c2ccccc12 [Tivantinib] + CCNC(=O)c1noc(-c2cc(C(C)C)c(O)cc2O)c1-c1ccc(CN2CCOCC2)cc1 [Luminespib] (partner 0.01 µM)
Summary of the method: as §1

Crenolanib + Bortezomib = compound: CC1(COc2ccc3c(c2)ncn3-c2ccc3cccc(N4CCC(N)CC4)c3n2)COC1 [Crenolanib] + CC(C)C[C@H](NC(=O)[C@H](Cc1ccccc1)NC(=O)c1cnccn1)B(O)O [Bortezomib] (partner 0.002 µM)
Summary of the method: as §1

Crenolanib + Decitabine = compound: CC1(COc2ccc3c(c2)ncn3-c2ccc3cccc(N4CCC(N)CC4)c3n2)COC1 [Crenolanib] + Nc1ncn([C@H]2C[C@H](O)[C@@H](CO)O2)c(=O)n1 [Decitabine] (partner 2 µM)
Summary of the method: as §1

PC-14 showed a relative viability (Tivantinib + Dasatinib; first compound 0.01 µM) of 0.29, a relative viability (Tivantinib + Dasatinib; first compound 0.03162 µM) of 0.27 and a relative viability (Tivantinib + Dasatinib; first compound 0.1 µM) of 0.234. It also gave a relative viability (Tivantinib + Dasatinib; first compound 0.3162 µM) of 0.0998, a relative viability (Tivantinib + Luminespib; first compound 0.03162 µM) of 0.152 and a relative viability (Tivantinib + Luminespib; first compound 0.1 µM) of 0.152. It also gave a relative viability (Tivantinib + Luminespib; first compound 0.3162 µM) of 0.15, a relative viability (Crenolanib + Bortezomib; first compound 0.01 µM) of 0.908 and a relative viability (Crenolanib + Bortezomib; first compound 0.03162 µM) of 0.809. It also gave a relative viability (Crenolanib + Bortezomib; first compound 0.1 µM) of 0.785, a relative viability (Crenolanib + Bortezomib; first compound 0.3162 µM) of 0.995 and a relative viability (Crenolanib + Bortezomib; first compound 1 µM) of 0.948. The relative viability (Crenolanib + Decitabine; first compound 0.01 µM) was 0.167, the relative viability (Crenolanib + Decitabine; first compound 0.03162 µM) was 0.195 and the relative viability (Crenolanib + Decitabine; first compound 0.1 µM) was 0.212. It also gave a relative viability (Crenolanib + Decitabine; first compound 0.3162 µM) of 0.21 and a relative viability (Crenolanib + Decitabine; first compound 1 µM) of 0.226.
In the case of RERF-LC-KJ, the relative viability (Tivantinib + Dasatinib; first compound 0.01 µM) is reported as 0.873, the relative viability (Tivantinib + Dasatinib; first compound 0.03162 µM) is reported as 0.895 and the relative viability (Tivantinib + Dasatinib; first compound 0.1 µM) is reported as 0.757. For the same cell line, the relative viability (Tivantinib + Dasatinib; first compound 0.3162 µM) was 0.585, the relative viability (Tivantinib + Luminespib; first compound 0.01 µM) was 1.25 and the relative viability (Tivantinib + Luminespib; first compound 0.03162 µM) was 1.29. It also gave a relative viability (Tivantinib + Luminespib; first compound 0.1 µM) of 1.24, a relative viability (Tivantinib + Luminespib; first compound 0.3162 µM) of 1.27 and a relative viability (Crenolanib + Bortezomib; first compound 0.01 µM) of 1.26. The relative viability (Crenolanib + Bortezomib; first compound 0.03162 µM) was 1.15, the relative viability (Crenolanib + Bortezomib; first compound 0.1 µM) was 1.11 and the relative viability (Crenolanib + Bortezomib; first compound 0.3162 µM) was 1.1. It also gave a relative viability (Crenolanib + Bortezomib; first compound 1 µM) of 1.12, a relative viability (Crenolanib + Decitabine; first compound 0.01 µM) of 0.672 and a relative viability (Crenolanib + Decitabine; first compound 0.03162 µM) of 0.699. For the same cell line, the relative viability (Crenolanib + Decitabine; first compound 0.1 µM) was 0.635, the relative viability (Crenolanib + Decitabine; first compound 0.3162 µM) was 0.697 and the relative viability (Crenolanib + Decitabine; first compound 1 µM) was 0.717.
Cell Line SK-LU-1 has a relative viability (Tivantinib + Dasatinib; first compound 0.01 µM) of 0.186, a relative viability (Tivantinib + Dasatinib; first compound 0.03162 µM) of 0.178 and a relative viability (Tivantinib + Dasatinib; first compound 0.1 µM) of 0.173. For the same cell line, the relative viability (Tivantinib + Dasatinib; first compound 0.3162 µM) was 0.169, the relative viability (Tivantinib + Luminespib; first compound 0.01 µM) was 0.183 and the relative viability (Tivantinib + Luminespib; first compound 0.03162 µM) was 0.218. The relative viability (Tivantinib + Luminespib; first compound 0.1 µM) was 0.197, the relative viability (Tivantinib + Luminespib; first compound 0.3162 µM) was 0.199 and the relative viability (Crenolanib + Bortezomib; first compound 0.01 µM) was 1.42. For the same cell line, the relative viability (Crenolanib + Bortezomib; first compound 0.03162 µM) was 1.11, the relative viability (Crenolanib + Bortezomib; first compound 0.1 µM) was 0.937 and the relative viability (Crenolanib + Bortezomib; first compound 0.3162 µM) was 1.33. It also gave a relative viability (Crenolanib + Bortezomib; first compound 1 µM) of 1, a relative viability (Crenolanib + Decitabine; first compound 0.01 µM) of 0.666 and a relative viability (Crenolanib + Decitabine; first compound 0.03162 µM) of 0.703. For the same cell line, the relative viability (Crenolanib + Decitabine; first compound 0.1 µM) was 0.533, the relative viability (Crenolanib + Decitabine; first compound 0.3162 µM) was 0.66 and the relative viability (Crenolanib + Decitabine; first compound 1 µM) was 0.653.
For SW 1573, the relative viability (Tivantinib + Dasatinib; first compound 0.01 µM) was 0.717, the relative viability (Tivantinib + Dasatinib; first compound 0.03162 µM) was 0.481 and the relative viability (Tivantinib + Dasatinib; first compound 0.1 µM) was 0.453. It also gave a relative viability (Tivantinib + Dasatinib; first compound 0.3162 µM) of 0.548, a relative viability (Tivantinib + Luminespib; first compound 0.01 µM) of 0.263 and a relative viability (Tivantinib + Luminespib; first compound 0.03162 µM) of 0.525. It also gave a relative viability (Tivantinib + Luminespib; first compound 0.1 µM) of 0.17, a relative viability (Tivantinib + Luminespib; first compound 0.3162 µM) of 0.271 and a relative viability (Crenolanib + Bortezomib; first compound 0.01 µM) of 1.04. The relative viability (Crenolanib + Bortezomib; first compound 0.03162 µM) was 1.15, the relative viability (Crenolanib + Bortezomib; first compound 0.1 µM) was 0.996 and the relative viability (Crenolanib + Bortezomib; first compound 0.3162 µM) was 1.29. The relative viability (Crenolanib + Bortezomib; first compound 1 µM) was 1.15, the relative viability (Crenolanib + Decitabine; first compound 0.01 µM) was 0.333 and the relative viability (Crenolanib + Decitabine; first compound 0.03162 µM) was 0.591. The relative viability (Crenolanib + Decitabine; first compound 0.1 µM) was 0.518, the relative viability (Crenolanib + Decitabine; first compound 0.3162 µM) was 0.648 and the relative viability (Crenolanib + Decitabine; first compound 1 µM) was 0.52.

From the supplement of paper PMC10307832
